According to US4418068A, “Antiestrogenic and antiandrugenic benzothiophenes” (Eli Lilly and Company, priority 1981, dated 1983):

Columns and labels:
[1] = tested on: DMBA-induced mammary tumors; test: Tests Against DMBA-Induced mammary tumors; format: in vivo, adult female virgin rats; conditions: Experiment D
Text: Mammary tumors were induced in adult female virgin rats by a single 20-mg. oral dose of 7,12-dimethylbenzanthracene. Within about six weeks, visible and palpable tumors were present in the mammary tissue of the rats, and the rats were allocated into treatment and control groups in such a way that each group contained animals having approximately the same size and number of tumors. The size of the tumors was estimated by measuring their cross-sectional area. […]
[…] The treated animals received 1 mg./kg. per day of 6-methoxy-2-(4-hydroxyphenyl)-3-[4-(2-piperidinoethoxy)benzoyl]benzo[b]thiophene, hydrochloride, as a subcutaneous injection in corn oil. The animals were not ovariectomized at the end of the experiment.

[2] = tested on: estrogenic response; test: Estrogenic Response Test, immature rats (uterine weight); format: in vivo, immature 40-45 g. female rats; conditions: s.c.
Protocol: (§1) The first test reported below is used to determine the estrogenic potency of compounds. It is well known that many compounds having antiestrogenic activity also, typically, have estrogenic activity. As has been explained, estrogenic activity is a liability in an antiestrogen, and thus it is important to identify antiestrogens having a minimum amount of estrogenic activity. This test was conducted with immature 40-45 g. female rats, immature 11-13 g. mice, and adult ovariectomized mice. The rats were tested in groups of six, and mice in groups of ten. All of the laboratory animals were from standardized strains and were equilibrated to the laboratory before the test started. Each test was begun by administering the test compound daily for three days, as a subcutaneous injection or by oral gavage, as indicated below in the reports of individual experiments. Untreated control animals were included in each experiment, along with animals to which estradiol was administered subcutaneously. The estradiol-treated animals provided positive controls, showing the physiological effect of a potent estrogen on the individual group of animals used in the experiment. […] The test animals were treated for three days and sacrificed on the fourth day, and the uteri were removed, freed of extraneous tissue, and blotted with paper towels. The uteri were weighed to the nearest 0.1 mg. The tables below report the results of representative experiments. The doses of estradiol and of the compound of this invention are given as the total of the three daily doses. The uterine weights are given, in mg., as the means of all of the organ weights of the animals in a group. Compounds are referred to by their example numbers above.

[3] = tested on: estrogenic response of estradiol; test: Antiestrogenic Test, immature rats (uterine weight); format: in vivo; conditions: Experiment I, 3 mg., s.c. + estradiol 0.3 mcg.
Protocol: (§2) This test was conducted with immature 40-45 g. female rats, immature 11-13 g. mice, and adult ovariectomized mice. The rats were tested in groups of six, and mice in groups of ten. All of the laboratory animals were from standardized strains and were equilibrated to the laboratory before the test started. Each test was begun by administering the test compound daily for three days, as a subcutaneous injection or by oral gavage, as indicated below in the reports of individual experiments.
(§3) The test animals were treated for three days and sacrificed on the fourth day, and the uteri were removed, freed of extraneous tissue, and blotted with paper towels. The uteri were weighed to the nearest 0.1 mg.
(§4) The uterine weights are given, in mg., as the means of all of the organ weights of the animals in a group. Compounds are referred to by their example numbers above.
(§5) The same standardized types of laboratory animals which were used in the experiments described above were also used in these experiments. […] Untreated control animals were used in each experiment. […] The dosage and sacrifice schedule, and the method of determining uterine weights and reporting data, were the same as the methods described above under Test 1.

[4] = Stability of the product on observation after several days; format: physicochemical
[5] = tested on: estrogenic response; test: Estrogenic Response Test, immature mice (uterine weight); format: in vivo, immature 11-13 g. mice; conditions: Experiment D, s.c.
Protocol: as §1

[6] = tested on: estrogenic response; test: Estrogenic Response Test, mature ovariectomized mice (uterine weight); format: in vivo, adult ovariectomized mice; conditions: Experiment E, s.c.
Protocol: as §1

[7] = tested on: estrogenic response of estradiol; test: Antiestrogenic Test, mature ovariectomized mice (uterine weight); format: in vivo, adult ovariectomized mice; conditions: Experiment A; estradiol alone 0.3 mcg., s.c.
Protocol: as §2, §3, §4, §5

[8] = tested on: estrogenic response of estradiol; test: Antiestrogenic Test, immature mice (uterine weight); format: in vivo; conditions: Experiment B; estradiol alone 0.3 mcg., s.c.
Protocol: as §2, §3, §4, §5

[9] = tested on: estrogenic response; test: Regression Test: reversal of established estrogenic response (uterine weight); format: in vivo, immature rats; conditions: estradiol alone 0.1 mcg./day s.c.
Protocol: The following test was carried out to determine if the compounds of this invention could reverse an estrogenic response, when administration of the compound was started after the estrogenic response had become established.
The test animals were immature rats, and all administrations were by subcutaneous injection.
The mean uterine weights of these groups of animals, respectively, were 97.9, 97.3, 119.9 and 112.3 mg.
The animals were sacrificed on the fifth day and their mean uterine weight was 56.4 mg.
The animals were sacrificed on the seventh day and their mean uterine weight was 57.0 mg.

[10] = tested on: uterine epithelial cells; conditions: known side-effect of earlier anti-estrogens; cited from earlier work
[11] = tested on: estrogenic response; conditions: Black and Goode 1980; cited from earlier work
[12] = tested on: androgen-stimulated prostate growth; test: Anti-Androgen Test, adult castrated male rats (ventral prostate weight); format: in vivo; conditions: Experiment A; androgen only, testosterone propionate 0.1 mg./day s.c., 7 days, castrated
Protocol: The antiandrogenic property of the compounds was evaluated in the following tests, in which the compound of Example 3 was used again.
(§6) The animals used in this test were adult male rats having a body weight which averaged about 330 g. when the experiment ended. All of the animals to be used in the experiment were castrated by the scrotal route, and were held untreated for 3 days. On the fourth day, subcutaneous administration of 0.1 mg./day of an exogenous androgen, testosterone propionate, was begun, and was continued for seven consecutive days. An untreated control group of animals received injections of 0.1 ml./day of corn oil as a blank treatment. The compound of this invention was administered orally or subcutaneously to the treated animals in 0.1 ml. of corn oil, at the same time that the androgen was administered. The animals were sacrificed 24 hours after the last injection of testosterone propionate, the ventral prostate glands were removed and weighed, and the mean of the weights of each treatment group was reported. The table below reports the mean weights resulting from administration of various doses of the compound along with androgen.
Each treatment group of animals in this experiment consisted of seven to nine animals, except for the untreated control group, which contained twelve animals.

[13] = tested on: androgen-stimulated prostate growth; test: Anti-Androgen Test, immature male rats (ventral prostate weight); format: in vivo; conditions: androgen only 20 mcg./day s.c.
Protocol: as §6, with “reported.” for “reported. The table below reports the mean weights resulting from administration of various doses of the compound along with androgen.”
This experiment was carried out in the same manner as Experiment A above, except that the test animals were immature male rats, weighing about 120 g. each at sacrifice. Each treatment group consisted of six or seven animals. All treatments in this experiment were administered by subcutaneous injection. The amount of the androgen administered was only 20 mcg./day because of the small size of the animals.
This experiment was also conducted in immature rats having average body weight of about 115 g. when the experiment ended. In other respects, the experiment was as described under Experiment B above. The treatment groups consisted of ten animals each, except for the androgen only group, of 16 animals, and the 5 mg./kg. group, of nine animals.

[14] = 1 mg./kg. per day s.c., fifth week

In the case of COc1ccc2c(C(=O)c3ccc(OCCN4CCCCC4)cc3)c(-c3ccc(O)cc3)sc2c1.Cl [Example 19, 6-Methoxy-2-(4-hydroxyphenyl)-3-[4-(2-piperidinoethoxy)benzoyl]benzo[b]thiophene, hydrochloride], the “animals with completely regressed tumors” value ([1]; 1 mg./kg. per day s.c. in corn oil, fourth week) is reported as “three of the eight treated animals had completely regressed”, the completely regressed animals [1, 14] is reported as “three completely regressed animals” and the “tumor area, upper end of range (single tumor)” value [1, 14] is reported as no more than 1974 sq. mm. The “average tumor area, other seven treated animals” value ([1]; 1 mg./kg. per day s.c., fifth week, animal with burst tumors excluded) was 398 square millimeters, the “tumor area of one animal (largest)” value ([1]; 1 mg./kg. per day s.c., four weeks) was 3764 sq. mm and the “average tumor area of the other seven animals” value ([1]; 1 mg./kg. per day s.c., four weeks, animal with 3764 sq. mm. ignored) was 254 sq. mm. For the same molecule, the “average total tumor area of the treated group” value ([1]; 1 mg./kg. per day s.c., four weeks, eight animals) was 692 square millimeters.

In the case of O=C(O)C(F)(F)F.O=C(c1ccc(OCCN2CCCCC2)cc1)c1c(-c2ccc(OC(=O)C(F)(F)F)cc2)sc2cc(OC(=O)C(F)(F)F)ccc12 [Example 9, 6-trifluoroacetoxy-2-(4-trifluoroacetoxyphenyl)-3-[4-(2-piperidinoethoxy)benzoyl]benzo[b]thiophene, trifluoroacetate], the “Uterine weight” value ([2]; Experiment C, total dose 3 mg.) is reported as 31.3 mg, the Uterine weight [3] is reported as 38.1 mg and the “hydrolysis of ester groups” value [4] is reported as “some hydrolysis of one or both ester groups had occurred”.

In the case of C[C@]12CC[C@@H]3c4ccc(O)cc4CC[C@H]3[C@@H]1CC[C@@H]2O [Estradiol, reference compound], the “Uterine weight” value ([2]; Experiment A, total dose 0.3 mcg.) is reported as 74.6 mg, the “Uterine weight” value ([2]; Experiment B, total dose 0.3 mcg.) is reported as 56.8 mg and the “Uterine weight” value ([2]; Experiment C, total dose 0.3 mcg.) is reported as 63.1 mg. The “Uterine weight” value ([5]; total dose 0.03 mcg.) was 33.3 mg, the “Uterine weight” value ([5]; total dose 0.09 mcg.) was 48.2 mg and the “Uterine weight” value ([5]; total dose 0.3 mcg.) was 50.3 mg. For the same molecule, the “Uterine weight” value ([6]; total dose 0.03 mcg.) was 25.8 mg, the “Uterine weight” value ([6]; total dose 0.1 mcg.) was 44.2 mg and the “Uterine weight” value ([6]; total dose 0.3 mcg.) was 65.9 mg. For the same molecule, the Uterine weight [7] was 65.9 mg, the Uterine weight [8] was 50.3 mg and the mean uterine weight ([9]; eight days) was 112.3 mg. The mean uterine weight ([9]; four days) was 97.3 mg, the mean uterine weight ([9]; six days) was 119.9 mg and the mean uterine weight ([9]; three days) was 97.9 mg.

For CC(=O)Oc1ccc(-c2sc3cc(OC(C)=O)ccc3c2C(=O)c2ccc(OCCN3CCCCC3)cc2)cc1 [Example 10, 6-acetoxy-2-(4-acetoxyphenyl)-3-[4-(2-piperidinoethoxy)benzoyl]benzo[b]thiophene], the “Uterine weight” value ([2]; Experiment C, total dose 3 mg.) was 30.8 mg and the Uterine weight [3] was 32.2 mg.

In the case of COc1ccc(-c2sc3cc(OC)ccc3c2C(=O)c2ccc(OCCN3CCCCC3)cc2)cc1.Cl [Example 14, 6-methoxy-2-(4-methoxyphenyl)-3-[4-(2-piperidinoethoxy)benzoyl]benzo[b]thiophene, hydrochloride], the “Uterine weight” value ([2]; Experiment C, total dose 3 mg.) is reported as 35.1 mg and the Uterine weight [3] is reported as 37.5 mg.

For CCCCCCCCCCCC(=O)Oc1ccc(-c2sc3cc(OC(=O)CCCCCCCCCCC)ccc3c2C(=O)c2ccc(OCCN3CCCCC3)cc2)cc1 [Example 11, 6-dodecanoyloxy-2-(4-dodecanoyloxyphenyl)3-[4-(2-piperidinoethoxy)benzoyl]benzo[b]thiophene], the “Uterine weight” value ([2]; Experiment C, total dose 3 mg.) was 37.1 mg and the Uterine weight [3] was 40.0 mg.

For CC/C(=C(\c1ccccc1)c1ccc(OCCN(C)C)cc1)c1ccccc1 [Tamoxifen, 1-(4-β-dimethylaminoethoxyphenyl)-1,2-diphenylbut-1-ene], the “effect on uterine epithelial cells” value [10] is given as “causes abnormal growth of uterine epithelial cells”.

For O=C(c1ccc(OCCN2CCCC2)cc1)c1c(-c2ccc(O)cc2)sc2cc(O)ccc12 [6-hydroxy-2-(4-hydroxyphenyl)-3-[4-(2-pyrrolidinoethoxy)benzoyl]benzo[b]thiophene], the “antiestrogenic effectiveness vs tamoxifen or trioxifene” value [11] is given as “considerably more effective as an antiestrogen” and the “estrogenicity vs tamoxifen or trioxifene” value [11] is given as “considerably less estrogenic”.

For Cl.O=C(Oc1ccc(-c2sc3cc(OC(=O)c4ccccc4)ccc3c2C(=O)c2ccc(OCCN3CCCCC3)cc2)cc1)c1ccccc1 [Example 13, 6-benzoyloxy-2-(4-benzoyloxyphenyl)-3-[4-(2-piperidinoethoxy)benzoyl]benzo[b]thiophene, hydrochloride], the “Uterine weight” value ([2]; Experiment C, total dose 3 mg.) was 39.6 mg and the Uterine weight [3] was 41.1 mg.

In the case of CCC(=O)O[C@H]1CC[C@H]2[C@@H]3CCC4=CC(=O)CC[C@]4(C)[C@H]3CC[C@]12C [Androgen, testosterone propionate, reference compound], the “Mean Prostate Weight” value [12] is reported as 309 mg, the “Mean Prostate Weight” value ([13]; Experiment B) is reported as 48.7 mg and the “Mean Prostate Weight” value ([13]; Experiment C) is reported as 43.5 mg.

With CCOC(=O)Oc1ccc(-c2sc3cc(OC(=O)OCC)ccc3c2C(=O)c2ccc(OCCN3CCCCC3)cc2)cc1 [Example 12, 6-ethoxycarbonyloxy-2-(4-ethoxycarbonyloxyphenyl)-3-[4-(2-piperidinoethoxy)benzoyl]benzo[b]thiophene] the “Uterine weight” value ([2]; Experiment C, total dose 3 mg.) was 35.8 mg and the Uterine weight [3] was 31.8 mg.
